Active and inactive are the calls of the source.
Legend:
[1] = protection from phage-mediated lysis, alamar blue read-out – E. coli UTI89, K1F phage, bacterial capsule biogenesis inhibitors (AID 488966); assay type: functional
[2] = target: T1, Voltage-dependent T-type calcium channel subunit alpha-1H (Homo sapiens, UniProt O95180); assay type: functional;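 further: channel activity triggered by adding a high calcium stimulation buffer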
[3] = target: T2, Corticotropin-releasing factor receptor 2/Corticotropin-releasing factor-binding protein (Homo sapiens, UniProt P24387+Q13324); assay: Dose Response confirmation of uHTS hits for small molecule antagonists of the CRF-binding protein and CRF-R2 receptor complex.; assay type: functional; conditions: read-out: IC50_Mean
T2 sequence (Q13324 whole entry): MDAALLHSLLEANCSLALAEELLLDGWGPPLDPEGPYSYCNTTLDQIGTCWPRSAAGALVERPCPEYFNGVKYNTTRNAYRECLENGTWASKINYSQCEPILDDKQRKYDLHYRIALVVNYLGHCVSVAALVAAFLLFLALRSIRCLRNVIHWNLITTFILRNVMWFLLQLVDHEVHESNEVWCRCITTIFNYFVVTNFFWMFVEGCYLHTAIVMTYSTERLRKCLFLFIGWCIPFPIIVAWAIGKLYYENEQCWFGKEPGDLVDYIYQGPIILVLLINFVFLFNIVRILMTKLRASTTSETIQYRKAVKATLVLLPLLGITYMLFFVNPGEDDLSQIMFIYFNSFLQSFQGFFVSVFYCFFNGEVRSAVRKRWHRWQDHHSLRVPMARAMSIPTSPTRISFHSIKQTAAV
T2 sequence (P24387 whole entry): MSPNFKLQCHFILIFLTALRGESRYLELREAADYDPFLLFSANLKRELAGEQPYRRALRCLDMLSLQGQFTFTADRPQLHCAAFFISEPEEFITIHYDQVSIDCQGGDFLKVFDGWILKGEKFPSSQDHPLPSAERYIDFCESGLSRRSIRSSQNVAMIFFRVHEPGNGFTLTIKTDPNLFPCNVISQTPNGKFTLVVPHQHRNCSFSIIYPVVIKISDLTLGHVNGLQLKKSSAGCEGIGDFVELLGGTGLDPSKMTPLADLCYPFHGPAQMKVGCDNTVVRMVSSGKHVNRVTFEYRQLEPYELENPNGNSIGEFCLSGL

[4] = target: T2, Corticotropin-releasing factor receptor 2/Corticotropin-releasing factor-binding protein; assay: activators of CRF receptor 2 with binding protein – uHTS hits, confirmation (AID 602473); assay type: functional; conditions: read-out: EC50_Mean
[5] = HepG2 cell cytotoxicity, dose response, cytotoxicity control for non-replicating M. tuberculosis project (AID 489018); assay type: functional; conditions: Mycobacterium tuberculosis
[6] = THP-1 cell cytotoxicity, dose response, cytotoxicity control for non-replicating M. tuberculosis project (AID 489025); assay type: functional
cells = assay type: functional
[7] = target: Female germline-specific tumor suppressor gld-1 (Caenorhabditis elegans, UniProt Q17339); assay: blockers of GLD-1/TGE RNA complex formation – biochemical, fluorescence polarization, C. elegans, dose response (AID 2802);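 further: fluorescence polarization of labeled TGE RNA bound by purified gld-1 protein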
Protein Rev = Protein Rev (Human immunodeficiency virus type 1 group M subtype B (isolate HXB2)(HIV-1), UniProt P04618); assay: blockers of HIV Rev/RRE RNA complex – biochemical, fluorescence polarization, HIV-1, dose response (AID 434976); set-up: species or system Human immunodeficiency virus 1
[8] = target: G-protein coupled receptor 55 (Homo sapiens, UniProt Q9Y2T6); assay: inhibition of LPI-stimulated GPR55 beta-arrestin translocation – imaging, U2OS, beta-arrestin-GFP, LPI agonist, primary screen (AID 2013); assay type: functional;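 further: antagonist potency measured as reduced agonist-driven arrestin aggregation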
Tumor necrosis factor = Tumor necrosis factor (Homo sapiens, UniProt P01375); assay: analog potency on TNFa NF-kB signaling – cell-based, revised, SAR follow-up (AID 2337); assay type: functional
[9] = target: T3, Nucleotide-binding oligomerization domain-containing protein 1 (Homo sapiens, UniProt Q9Y239); assay: blockers of NOD1 pathway activity – revised, SAR follow-up (AID 2333); assay type: functional
T3 sequence (Q9Y239 whole entry): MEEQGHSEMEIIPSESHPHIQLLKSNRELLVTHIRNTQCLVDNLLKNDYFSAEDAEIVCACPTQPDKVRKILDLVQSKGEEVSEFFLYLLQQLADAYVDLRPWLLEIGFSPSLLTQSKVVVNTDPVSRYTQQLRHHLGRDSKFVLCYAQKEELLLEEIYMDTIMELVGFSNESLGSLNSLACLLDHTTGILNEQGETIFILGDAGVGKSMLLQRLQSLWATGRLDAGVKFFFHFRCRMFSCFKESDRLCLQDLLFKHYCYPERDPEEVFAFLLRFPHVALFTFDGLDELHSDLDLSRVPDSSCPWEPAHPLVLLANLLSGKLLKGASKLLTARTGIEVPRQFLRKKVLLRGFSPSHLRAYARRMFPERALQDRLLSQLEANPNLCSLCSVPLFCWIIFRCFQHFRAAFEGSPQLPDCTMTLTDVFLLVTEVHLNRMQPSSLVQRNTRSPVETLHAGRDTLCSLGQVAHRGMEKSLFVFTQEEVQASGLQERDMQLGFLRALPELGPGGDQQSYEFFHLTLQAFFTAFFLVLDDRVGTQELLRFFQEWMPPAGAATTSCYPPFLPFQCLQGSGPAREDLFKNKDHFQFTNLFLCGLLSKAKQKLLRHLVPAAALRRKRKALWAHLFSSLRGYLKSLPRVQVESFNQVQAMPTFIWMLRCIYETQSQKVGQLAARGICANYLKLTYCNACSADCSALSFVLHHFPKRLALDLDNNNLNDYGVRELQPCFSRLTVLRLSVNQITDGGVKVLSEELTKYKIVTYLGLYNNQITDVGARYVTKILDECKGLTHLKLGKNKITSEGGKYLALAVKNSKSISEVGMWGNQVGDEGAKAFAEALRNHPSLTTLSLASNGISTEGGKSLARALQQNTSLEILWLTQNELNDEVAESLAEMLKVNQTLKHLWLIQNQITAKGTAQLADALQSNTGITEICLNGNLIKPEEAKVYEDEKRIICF

[10] = target: T4, Nucleotide-binding oligomerization domain-containing protein 2 (Homo sapiens, UniProt Q9HC29); assay: PubChem AID 2334; assay type: functional
T4 sequence (Q9HC29 whole entry, the tested form may be a part): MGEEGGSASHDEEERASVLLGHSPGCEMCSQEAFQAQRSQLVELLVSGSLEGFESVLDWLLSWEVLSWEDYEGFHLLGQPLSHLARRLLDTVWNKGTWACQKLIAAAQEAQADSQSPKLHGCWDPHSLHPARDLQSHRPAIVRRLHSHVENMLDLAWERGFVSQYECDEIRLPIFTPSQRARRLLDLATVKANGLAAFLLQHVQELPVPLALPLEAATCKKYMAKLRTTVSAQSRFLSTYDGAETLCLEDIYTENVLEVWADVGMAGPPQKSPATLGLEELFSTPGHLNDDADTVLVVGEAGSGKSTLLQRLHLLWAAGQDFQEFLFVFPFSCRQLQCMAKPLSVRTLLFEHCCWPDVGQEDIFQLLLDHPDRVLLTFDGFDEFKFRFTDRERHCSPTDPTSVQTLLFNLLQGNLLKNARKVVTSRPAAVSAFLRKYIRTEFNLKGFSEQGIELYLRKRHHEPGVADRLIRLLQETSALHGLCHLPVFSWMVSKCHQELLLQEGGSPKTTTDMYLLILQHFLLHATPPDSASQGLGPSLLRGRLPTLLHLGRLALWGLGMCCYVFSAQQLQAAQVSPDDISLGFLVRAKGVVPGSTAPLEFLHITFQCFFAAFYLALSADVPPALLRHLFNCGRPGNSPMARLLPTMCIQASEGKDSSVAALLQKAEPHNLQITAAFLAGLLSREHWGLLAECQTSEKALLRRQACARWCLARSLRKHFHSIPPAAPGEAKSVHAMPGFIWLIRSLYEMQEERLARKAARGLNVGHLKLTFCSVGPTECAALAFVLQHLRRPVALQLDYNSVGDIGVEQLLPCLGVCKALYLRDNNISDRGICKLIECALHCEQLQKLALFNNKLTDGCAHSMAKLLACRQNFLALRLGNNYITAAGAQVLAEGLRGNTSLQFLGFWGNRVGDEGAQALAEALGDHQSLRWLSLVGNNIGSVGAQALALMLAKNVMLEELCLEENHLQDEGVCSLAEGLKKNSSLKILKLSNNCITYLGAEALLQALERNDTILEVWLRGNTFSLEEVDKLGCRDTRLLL

[11] = target: T4, Nucleotide-binding oligomerization domain-containing protein 2; assay: inhibition of NOD2-driven NF-kB reporter – cell-based, luminescence, uHTS, HEK293 (AID 1566); assay type: functional
[12] = target: T5, Voltage-gated N-type calcium channel alpha-1B subunit/Amyloid beta A4 precursor protein-binding family A member 1 (Homo sapiens, UniProt Q00975+Q02410); assay: disruptors of Mint-PDZ/N-type channel peptide interaction – biochemical, HTRF, SAR follow-up (AID 2489); assay type: functional
[13] = target: T5, Voltage-gated N-type calcium channel alpha-1B subunit/Amyloid beta A4 precursor protein-binding family A member 1; assay: disruptors of Mint-PDZ/N-type channel peptide interaction – biochemical, HTRF, set 2, SAR follow-up (AID 434980); assay type: functional
[14] = target: Intestinal-type alkaline phosphatase (Homo sapiens, UniProt P09923); assay: Dose Response confirmation of uHTS hits from a small molecule inhibitors of human intestinal alkaline phosphatase via a luminescent assay. [Related pubchem assays (depositor defined):AID2544, AID2574]; assay type: functional
Sequence of Intestinal-type alkaline phosphatase (P09923 whole entry): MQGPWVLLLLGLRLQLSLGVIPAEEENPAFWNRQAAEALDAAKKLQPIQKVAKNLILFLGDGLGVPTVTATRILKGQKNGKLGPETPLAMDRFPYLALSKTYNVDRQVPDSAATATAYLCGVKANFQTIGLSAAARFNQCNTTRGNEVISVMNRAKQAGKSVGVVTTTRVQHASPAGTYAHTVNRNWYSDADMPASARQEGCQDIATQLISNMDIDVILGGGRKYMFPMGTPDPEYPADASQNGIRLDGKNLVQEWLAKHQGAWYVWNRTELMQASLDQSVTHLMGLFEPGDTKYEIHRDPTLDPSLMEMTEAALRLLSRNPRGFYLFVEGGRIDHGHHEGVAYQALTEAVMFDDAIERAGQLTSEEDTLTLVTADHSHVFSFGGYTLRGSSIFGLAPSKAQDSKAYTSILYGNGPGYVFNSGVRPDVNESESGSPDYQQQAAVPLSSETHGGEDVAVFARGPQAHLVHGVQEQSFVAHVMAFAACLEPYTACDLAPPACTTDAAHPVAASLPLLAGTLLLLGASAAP

[15] = target: T1, Voltage-dependent T-type calcium channel subunit alpha-1H; assay: human CACNA1H calcium influx blockade – cell-based, synthetic library set 1, calcium flux (AID 493022); assay type: functional
Mu-type opioid receptor [16] = target: T6, Mu-type opioid receptor (Homo sapiens, UniProt P35372); assay: mu opioid receptor activators, image-based, SAR follow-up (AID 2352); assay type: functional
T6 sequence (P35372 whole entry): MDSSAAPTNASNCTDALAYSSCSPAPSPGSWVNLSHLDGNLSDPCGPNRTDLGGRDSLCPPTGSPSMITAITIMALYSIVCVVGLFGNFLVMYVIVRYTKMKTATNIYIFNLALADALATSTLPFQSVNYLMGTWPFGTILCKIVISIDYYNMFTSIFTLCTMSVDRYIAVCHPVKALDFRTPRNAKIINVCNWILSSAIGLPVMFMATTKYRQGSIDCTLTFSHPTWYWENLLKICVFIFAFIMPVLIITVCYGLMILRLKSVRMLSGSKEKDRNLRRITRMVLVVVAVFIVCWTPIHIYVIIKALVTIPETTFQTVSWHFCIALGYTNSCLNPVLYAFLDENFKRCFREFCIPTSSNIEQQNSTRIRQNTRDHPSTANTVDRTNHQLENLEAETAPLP

[17] = target: T7, Delta-type opioid receptor (Homo sapiens, UniProt P41143); assay: DOR agonists, SAR follow-up, image-based (AID 2370); assay type: functional
T7 sequence (P41143 whole entry): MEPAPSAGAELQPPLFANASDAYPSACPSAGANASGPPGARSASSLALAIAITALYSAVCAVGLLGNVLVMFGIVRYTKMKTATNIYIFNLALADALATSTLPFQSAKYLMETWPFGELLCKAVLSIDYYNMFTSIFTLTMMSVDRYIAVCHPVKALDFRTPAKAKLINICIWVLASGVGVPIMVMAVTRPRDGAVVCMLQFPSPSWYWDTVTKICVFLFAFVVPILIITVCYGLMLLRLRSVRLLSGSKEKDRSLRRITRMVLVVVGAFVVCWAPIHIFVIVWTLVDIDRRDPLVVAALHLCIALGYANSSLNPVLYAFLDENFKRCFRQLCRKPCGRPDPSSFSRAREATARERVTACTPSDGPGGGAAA

[18] = target: T8, Kappa-type opioid receptor (Homo sapiens, UniProt P41145); assay: kappa opioid receptor blockers, cell-based, luminescence, beta-arrestin, SAR follow-up (AID 2285); assay type: functional
T8 sequence (P41145 whole entry): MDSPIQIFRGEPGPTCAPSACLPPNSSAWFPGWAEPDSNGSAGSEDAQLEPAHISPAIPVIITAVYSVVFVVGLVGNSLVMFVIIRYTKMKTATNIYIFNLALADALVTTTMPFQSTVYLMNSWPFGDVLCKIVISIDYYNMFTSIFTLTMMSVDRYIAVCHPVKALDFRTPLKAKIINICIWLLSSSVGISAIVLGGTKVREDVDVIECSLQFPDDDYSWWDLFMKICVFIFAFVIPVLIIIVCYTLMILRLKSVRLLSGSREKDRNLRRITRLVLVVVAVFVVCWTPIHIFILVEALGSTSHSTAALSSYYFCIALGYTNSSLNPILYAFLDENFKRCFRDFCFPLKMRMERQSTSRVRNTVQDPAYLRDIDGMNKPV

[19] = target: T7, Delta-type opioid receptor; assay: delta opioid receptor blockers – image-based, SAR follow-up (AID 2357); assay type: functional
[20] = target: T8, Kappa-type opioid receptor; assay: kappa opioid receptor activation potency – imaging, image-based, SAR follow-up (AID 2359); assay type: functional
Mu-type opioid receptor [21] = target: T6, Mu-type opioid receptor; assay: mu opioid receptor blockers – image-based, SAR follow-up (AID 2420); assay type: functional;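 further: compounds added before stimulation of receptor with agonist DAMGO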
[22] = target: T8, Kappa-type opioid receptor; assay: kappa opioid receptor blockers, image-based, SAR follow-up (AID 2348); assay type: functional
[23] = Luminescence Cell-Based Dose Response HTS to Identify Inhibitors of 5'UTR Stem-Loop Driven Prion Protein mRNA Translation in H4 Neuroglioblastoma Cells. [Related pubchem assays: 1827 (Project Summary), 1813 (Primary HTS)]; assay type: functional
[24] = target: T9, Ubiquitin-conjugating enzyme E2 N (Homo sapiens, UniProt P61088); assay type: functional;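 further: Dose-response confirmation in a TR-FRET assay detecting UBC13-driven polyubiquitin chain formation, inhibition measured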
T9 sequence (P61088 whole entry): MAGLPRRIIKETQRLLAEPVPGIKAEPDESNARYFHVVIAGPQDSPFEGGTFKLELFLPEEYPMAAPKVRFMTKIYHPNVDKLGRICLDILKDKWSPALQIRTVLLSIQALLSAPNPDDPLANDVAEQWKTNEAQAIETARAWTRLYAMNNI

[25] = luciferase reporter signal suppression in cells – H4 neuroglioma cells, luminescence, dose response (AID 1990); assay type: functional, cell-based
[26] = alpha-synuclein stem-loop luciferase translation blockers – H4 neuroglioma cells, luminescence, confirmation (AID 1988); assay type: functional, cell-based
[27] = target: Cyclin-dependent kinase 5/CDK5 activator 1 (Homo sapiens, UniProt Q00535); assay: blockade of human CDK5 activity – biochemical, cherry-picked samples, set 2, dose response (AID 504545)

T1 sequence (O95180 whole entry): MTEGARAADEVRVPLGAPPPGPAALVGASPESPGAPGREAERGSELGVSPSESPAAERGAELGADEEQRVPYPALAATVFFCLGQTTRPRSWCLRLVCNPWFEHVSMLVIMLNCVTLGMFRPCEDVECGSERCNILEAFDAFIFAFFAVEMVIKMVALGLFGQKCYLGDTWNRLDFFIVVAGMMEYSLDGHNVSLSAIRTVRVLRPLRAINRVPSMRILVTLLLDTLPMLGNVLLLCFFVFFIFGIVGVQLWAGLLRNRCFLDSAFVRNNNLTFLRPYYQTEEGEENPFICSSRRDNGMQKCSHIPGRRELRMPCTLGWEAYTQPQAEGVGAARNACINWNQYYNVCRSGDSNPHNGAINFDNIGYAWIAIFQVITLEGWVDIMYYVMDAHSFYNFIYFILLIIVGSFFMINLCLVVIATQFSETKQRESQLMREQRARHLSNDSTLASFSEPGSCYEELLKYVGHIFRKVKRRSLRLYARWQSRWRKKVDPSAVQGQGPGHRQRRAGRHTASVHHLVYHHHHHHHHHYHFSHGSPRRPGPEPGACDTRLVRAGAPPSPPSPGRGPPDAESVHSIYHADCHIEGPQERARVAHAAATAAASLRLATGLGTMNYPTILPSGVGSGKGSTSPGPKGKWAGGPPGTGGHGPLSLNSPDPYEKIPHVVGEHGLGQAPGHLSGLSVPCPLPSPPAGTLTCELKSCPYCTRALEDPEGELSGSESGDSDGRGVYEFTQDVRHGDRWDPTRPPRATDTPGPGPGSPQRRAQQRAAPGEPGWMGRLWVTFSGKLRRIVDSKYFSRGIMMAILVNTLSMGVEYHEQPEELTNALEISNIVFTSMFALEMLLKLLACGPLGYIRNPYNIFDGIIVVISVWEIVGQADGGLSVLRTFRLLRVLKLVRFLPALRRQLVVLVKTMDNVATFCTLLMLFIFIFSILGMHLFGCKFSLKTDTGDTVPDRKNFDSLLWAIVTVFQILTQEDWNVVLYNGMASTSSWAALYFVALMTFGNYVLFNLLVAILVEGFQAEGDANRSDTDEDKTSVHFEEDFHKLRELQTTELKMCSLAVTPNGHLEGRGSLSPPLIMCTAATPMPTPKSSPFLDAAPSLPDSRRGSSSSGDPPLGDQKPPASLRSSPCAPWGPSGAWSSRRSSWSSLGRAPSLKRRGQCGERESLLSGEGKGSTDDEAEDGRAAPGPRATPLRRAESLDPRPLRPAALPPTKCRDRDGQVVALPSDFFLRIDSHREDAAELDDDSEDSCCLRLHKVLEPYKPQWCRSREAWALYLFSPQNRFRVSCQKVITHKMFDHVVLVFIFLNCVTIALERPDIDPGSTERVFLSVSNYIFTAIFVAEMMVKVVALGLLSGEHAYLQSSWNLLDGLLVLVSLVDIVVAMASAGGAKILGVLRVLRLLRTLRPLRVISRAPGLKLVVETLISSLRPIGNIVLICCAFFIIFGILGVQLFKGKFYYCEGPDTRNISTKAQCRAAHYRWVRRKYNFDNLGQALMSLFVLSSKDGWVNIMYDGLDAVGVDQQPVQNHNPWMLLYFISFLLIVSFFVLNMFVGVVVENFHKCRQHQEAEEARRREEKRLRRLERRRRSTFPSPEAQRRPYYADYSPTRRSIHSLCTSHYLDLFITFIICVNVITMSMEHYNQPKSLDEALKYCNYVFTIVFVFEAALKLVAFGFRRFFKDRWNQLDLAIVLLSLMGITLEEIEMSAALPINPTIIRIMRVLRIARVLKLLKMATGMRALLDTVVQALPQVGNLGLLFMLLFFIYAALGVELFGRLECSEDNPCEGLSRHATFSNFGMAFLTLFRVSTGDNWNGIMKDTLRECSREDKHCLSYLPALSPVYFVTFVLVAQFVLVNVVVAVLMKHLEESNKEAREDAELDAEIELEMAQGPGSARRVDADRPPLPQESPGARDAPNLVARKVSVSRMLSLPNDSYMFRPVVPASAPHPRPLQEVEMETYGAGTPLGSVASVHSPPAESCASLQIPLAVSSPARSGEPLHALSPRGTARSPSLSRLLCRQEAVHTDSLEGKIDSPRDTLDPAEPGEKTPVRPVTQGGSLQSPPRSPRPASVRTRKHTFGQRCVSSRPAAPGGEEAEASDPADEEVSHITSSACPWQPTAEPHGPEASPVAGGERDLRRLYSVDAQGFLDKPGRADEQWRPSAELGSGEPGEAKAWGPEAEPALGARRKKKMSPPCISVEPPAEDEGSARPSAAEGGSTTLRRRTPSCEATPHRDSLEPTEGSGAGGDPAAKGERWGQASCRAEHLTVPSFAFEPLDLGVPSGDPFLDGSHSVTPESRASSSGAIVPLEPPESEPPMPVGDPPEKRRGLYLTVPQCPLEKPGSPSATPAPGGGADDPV

Compound: CCOc1ccc(NC(=O)C2CCC(C)(C(=O)O)C2(C)C)cc1 (stereo not given)
- IC50 [1]: > 300 µM (active)

Compound: COc1ccc(C(c2nnnn2Cc2ccccc2)N2CCN(c3ccccc3)CC2)cc1 (stereo not given)
- EC50 [2]: 3.34 µM (active)
- IC50 [3]: > 47.1 µM (inactive)
- EC50 [4]: > 53 µM (inactive)

Compound: Cc1ccc(-n2cc(CNCCc3cscn3)c(-c3ccc(F)cc3)n2)cc1
- CC50 [5]: 16.5 µM (active)
- CC50 [6]: 23.1 µM (active)
- IC50 (cells): 12.7 µM (active)

Compound: CCN(CC)S(=O)(=O)c1ccc(N2CCCC2)c(NS(=O)(=O)c2ccc(F)cc2)c1
- IC50 [7]: 4.04 µM (active)
- IC50 (Protein Rev): > 75.4 µM (not active)

Compound: Nc1nc(C23CC4CCC(CC(C4)C2)C3)cs1
- IC50 [8]: 7.48 µM (active)

Compound: Cc1nn(-c2ccccc2)c2nc(C(Cl)(Cl)Cl)[nH]c(=O)c12
- IC50 (Tumor necrosis factor): 6.62 µM (active)
- IC50 [9]: 4.5 µM (active)
- IC50 [10]: 5.9 µM (active)
- EC50 [11]: 10.5 µM (active)

Compound: CC12C=CC(C)(O1)C1C(=O)N(c3ccccc3)C(=O)C12 (stereo not given)
- IC50 [12]: 11.7 µM (active)
- IC50 [13]: 10.5 µM (active)

Compound: c1ccc(-c2nnc(CN3CCC4(CC3)OCCO4)o2)cc1
- IC50 [14]: > 100 µM (inactive)

Compound: O=C(COc1ccc(F)cc1)Nc1nnc(-c2ccc3c(c2)CCCC3)o1
- EC50 [15]: 2.1 µM (active)

Compound: Cc1ccc(-n2[nH]c(C)c(C=Nc3ccc(Cl)c4cccnc34)c2=O)cc1
- EC50 (Mu-type opioid receptor [16]): 2.73 µM (active)
- EC50 [17]: 14.8 µM (inactive)
- IC50 [18]: > 10 µM (inactive)
- IC50 [19]: > 32 µM (inactive)
- EC50 [20]: 3.85 µM (active)
- IC50 (Mu-type opioid receptor [21]): > 32 µM (inactive)
- IC50 [22]: > 32 µM (inactive)

Compound: CC(C)n1cnc2c(Nc3cccc(Cl)c3)nc(N(CCO)CCCO)nc21
- EC50 [23]: 10.7 µM (active)
- IC50 [24]: > 20 µM (inactive)
- EC50 [25]: 10.8 µM (active)
- EC50 [26]: 9.32 µM (active)
- AC50 [27]: 0.463 µM (active)
